Target: T1, sigma 1 (h) (Homo sapiens, UniProt Q99720)
T1 construct: incubating Jurkat cell membranes (10-20 mg protein per tube) with [^3H](+) pentazocine; endogenous in cells; host or cells: Jurkat cell membranes
Test: σ1 binding assay ([3H](+)pentazocine displacement, Jurkat cell membranes)
Details: compound at 10 nM, [3H](+)pentazocine 15 nM, 37° C., 2 hours, read-out: Sigma-1 receptor % inhibition 10 nM
Description: The σ1 binding assays were performed according to Ganapathy et al (Ganapathy, M. E. et al. (1999), J. Pharmacol. Exp. Ther., 28:251-260). The σ1 binding assay was carried out by incubating Jurkat cell membranes (10-20 mg protein per tube) with [^3H](+) pentazocine a selective S1R ligand (15 nM) and a range of concentration of tested compounds, at 37° C. for 2 hours in 5 mM tris/HCl buffer (pH=7.4). The inhibition of [3H]-(+)-pentazocine binding assay is mainly used to determine the inhibition constant (Ki) of potential SIR ligands. These assays are performed with a single concentration of [^3H]-(+)-pentazocine at a concentration near its KD and increasing concentrations of non-radioactive ligands.

T1 sequence (Q99720 whole entry): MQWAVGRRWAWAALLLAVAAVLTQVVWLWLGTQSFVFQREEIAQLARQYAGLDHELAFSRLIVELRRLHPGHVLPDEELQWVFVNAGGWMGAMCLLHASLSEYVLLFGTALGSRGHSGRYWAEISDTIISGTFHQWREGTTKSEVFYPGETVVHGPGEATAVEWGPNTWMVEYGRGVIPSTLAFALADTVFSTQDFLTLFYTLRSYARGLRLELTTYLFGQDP

Compound | inhibition at 0.01 µM [%]
O=c1c(-c2ccccc2)ccnn1CCCCN1CCCC(CO)C1 (stereo not shown) [10t, 2-(4-(3-(hydroxymethyl)piperidin-1-yl)butyl)-4-phenylpyridazin-3(2H)-one] | 9.7
O=c1c(-c2ccccc2)ccnn1CCCCN1CCN(c2ccccc2)CC1 [11d, 4-phenyl-2-[4-(4-phenylpiperazin-1-yl)butyl]-2,3-dihydropyridazin-3-one] | 16.1
O=c1c(CCc2ccccc2)ccnn1CCCCN1CCOCC1 [21a, 2-[4-(morpholin-4-yl)butyl]-4-(2-phenylethyl)-2,3-dihydropyridazin-3-one] | 1.1
O=c1c(-c2ccc(C(F)(F)F)cc2)ccnn1CCCCN1CCOCC1 [11n, 2-[4-(morpholin-4-yl)butyl]-4-[4-(trifluoromethyl)phenyl]-2,3-dihydropyridazin-3-one] | 6.13
CC1CN(CCCCn2nccc(-c3ccccc3)c2=O)CC(C)O1 (stereo not shown) [10x, 2-(4-(2,6-dimethylmorpholino)butyl)-4-phenylpyridazin-3(2H)-one] | 34.6
O=c1c(-c2ccccc2)ccnn1CCCN1CCOCC1 [9c, 2-[3-(morpholin-4-yl)propyl]-4-phenyl-2,3-dihydropyridazin-3-one] | 7.6
O=c1c(-c2ccccc2)ccnn1CCCCN1CCOC(c2ccccc2)C1 (stereo not shown) [10w, 4-phenyl-2-(4-(2-phenylmorpholino)butyl)pyridazin-3(2H)-one] | 37.6
CN(CCCCn1nccc(-c2ccccc2)c1=O)C12CC3CC(CC(C3)C1)C2 [10j, 2-(4-(adamantan-1-yl(methyl)amino)butyl)-4-phenylpyridazin-3(2H)-one] | 4.9
O=c1c(-c2ccsc2)ccnn1CCCCN1CCOCC1 [11o, 2-[4-(morpholin-4-yl)butyl]-4-(thiophen-3-yl)-2,3-dihydropyridazin-3-one] | 33.4
O=c1c(-c2ccc(F)cc2)ccnn1CCCCN1CCOCC1 [11h, 4-(4-fluorophenyl)-2-(4-morpholinobutyl)pyridazin-3(2H)-one] | 12
O=c1c(-c2ccccc2)ccnn1CCCCN1CCCCCC1 [10e, 2-(4-(azepan-1-yl)butyl)-4-phenylpyridazin-3(2H)-one] | 30.2
O=c1c(-c2ccccc2)ccnn1CCCCNC12CC3CC(CC(C3)C1)C2 [10i, 2-(4-(adamantan-1-ylamino)butyl)-4-phenylpyridazin-3(2H)-one] | 37.1
CN(Cc1ccccc1)CC(O)CCn1nccc(-c2ccccc2)c1=O (stereo not shown) [33a, 2-(4-(benzyl(methyl)amino)-3-hydroxybutyl)-4-phenylpyridazin-3(2H)-one] | 12.3
O=c1c(-c2ccccc2)ccnn1CCCCN1CCCCCCC1 [10f, 2-(4-(azocan-1-yl)butyl)-4-phenylpyridazin-3(2H)-one] | 70
CN(CCCCn1nccc(-c2ccccc2)c1=O)Cc1ccccc1 [10a, 2-(4-(benzyl(methyl)amino)butyl)-4-phenylpyridazin-3(2H)-one] | 87.5
O=c1c(-c2ccccc2)cccn1CCCCN1CCOCC1 [41a, 1-[4-(morpholin-4-yl)butyl]-3-phenyl-1,2-dihydropyridin-2-one] | 3
O=c1c(-c2ccccc2)ccnn1CCCCN1CCOCC1 [10b, 2-(4-morpholinobutyl)-4-phenylpyridazin-3(2H)-one] | 14.5
O=c1c(-c2ccccc2)ccnn1CCCCN1CCCOCC1 [10c, 2-(4-(1,4-oxazepan-4-yl)butyl)-4-phenylpyridazin-3(2H)-one] | 40.3
O=c1cc(-c2ccccc2)cnn1CCCCN1CCOCC1 [compound 14, 2-(4-morpholinobutyl)-5-phenylpyridazin-3(2H)-one] | 2.1
Cc1ncc(-c2ccccc2)c(=O)n1CCCCN1CCOCC1 [40a, 2-methyl-3-(4-morpholinobutyl)-5-phenylpyrimidin-4(3H)-one] | 1.4
O=c1c(-c2ccccc2)ccnn1CCCCN1CCC[C@H]2CCCC[C@@H]21 [11e, 2-{4-[(4aR,8aS)-decahydroquinolin-1-yl]butyl}-4-phenyl-2,3-dihydropyridazin-3-one] | 7.4

Compound | inhibition at 0.01 µM [%]
O=c1c(-c2ccoc2)ccnn1CCCCN1CCOCC1 [11p, 4-(furan-3-yl)-2-[4-(morpholin-4-yl)butyl]-2,3-dihydropyridazin-3-one] | 15.6
O=c1c(-c2ccccc2)ccnn1CCCCN1CCc2ccccc2CC1 [10h, 4-phenyl-2-(4-(1,2,4,5-tetrahydro-3H-benzo[d]azepin-3-yl)butyl)pyridazin-3(2H)-one] | 70.8
COCC(c1ccccc1)N(C)CCCCn1nccc(-c2ccccc2)c1=O (stereo not shown) [10o, 2-(4-((2-methoxy-1-phenylethyl)(methyl)amino)butyl)-4-phenylpyridazin-3(2H)-one] | 25.6
O=c1c(-c2ccccc2Cl)ccnn1CCCCN1CCOCC1 [11m, 4-(2-chlorophenyl)-2-[4-(morpholin-4-yl)butyl]-2,3-dihydropyridazin-3-one] | 5.04
O=c1c(-c2ccccc2)ccnn1CCCCN1CCCC(c2ccccc2)C1 (stereo not shown) [10r, 4-phenyl-2-(4-(3-phenylpiperidin-1-yl)butyl)pyridazin-3(2H)-one] | 78.7
O=c1c(-c2ccccc2)ccnn1CCCCN1CCc2ccccc2C1 [10g, 2-(4-(3,4-dihydroisoquinolin-2(1H)-yl)butyl)-4-phenylpyridazin-3(2H)-one] | 73.5
O=c1c(-c2ccccc2)ccnn1CCCCN1CCN(Cc2ccccc2)CC1 [10z, 2-[4-(4-benzylpiperazin-1-yl)butyl]-4-phenyl-2,3-dihydropyridazin-3-one] | 64.2
O=c1c(-c2ccccc2)ccnn1CCCN1CCCCCC1 [9b, 2-(3-(azepan-1-yl)propyl)-4-phenylpyridazin-3(2H)-one] | 47.4
CN(CCCCn1nccc(-c2ccccc2)c1=O)CC1CCOCC1 [10q, 2-(4-(methyl((tetrahydro-2H-pyran-4-yl)methyl)amino)butyl)-4-phenylpyridazin-3(2H)-one] | 29.4
CC1(C)CC2CC(C)(CN2CCCCn2nccc(-c3ccccc3)c2=O)C1 (stereo not shown) [10k, 4-phenyl-2-(4-(1,3,3-trimethyl-6-azabicyclo[3.2.1]octan-6-yl)butyl)pyridazin-3(2H)-one] | 3.7
O=c1c(-c2ccccc2)ccnn1CCCCN1C2CCC1CC(O)C2 (stereo not shown) [compound 16, 2-(4-(3-hydroxy-8-azabicyclo[3.2.1]octan-8-yl)butyl)-4-phenylpyridazin-3(2H)-one] | 4.8
O=c1c(-c2cccc(Cl)c2)ccnn1CCCCN1CCOCC1 [11l, 4-(3-chlorophenyl)-2-[4-(morpholin-4-yl)butyl]-2,3-dihydropyridazin-3-one] | 69.1
CN(CCCn1nccc(-c2ccccc2)c1=O)Cc1ccccc1 [9a, 2-(3-(benzyl(methyl)amino)propyl)-4-phenylpyridazin-3(2H)-one] | 61.5
O=c1c(-c2ccccc2)ccnn1CCCCN1CCC(Cc2ccccc2)CC1 [11a, 2-[4-(4-benzylpiperidin-1-yl)butyl]-4-phenyl-2,3-dihydropyridazin-3-one] | 83.4
O=c1c(-c2ccccc2)ccnn1CCCCN1CCC(c2ccccc2)CC1 [10s, 4-phenyl-2-(4-(4-phenylpiperidin-1-yl)butyl)pyridazin-3(2H)-one] | 64.6
O=c1c(N2CCCCC2)ccnn1CCCCN1CCOCC1 [25a, 2-(4-morpholinobutyl)-4-(piperidin-1-yl)pyridazin-3(2H)-one] | 15.8
O=c1c(-c2ccc(Cl)cc2)ccnn1CCCCN1CCOCC1 [11k, 4-(4-chlorophenyl)-2-[4-(morpholin-4-yl)butyl]-2,3-dihydropyridazin-3-one] | 1.9
O=c1c(-c2ccccc2)ccnn1CCCCN1CCCCC1 [10d, 4-phenyl-2-(4-(piperidin-1-yl)butyl)pyridazin-3(2H)-one] | 28.3
O=c1c(-c2ccccc2)ccnn1CCCCN(Cc1ccccc1)CC1CCCO1 (stereo not shown) [10m, 2-(4-(benzyl((tetrahydrofuran-2-yl)methyl)amino)butyl)-4-phenylpyridazin-3(2H)-one] | 28.8
CCN(CCCCn1nccc(-c2ccccc2)c1=O)Cc1ccccc1 [11b, 2-{4-[benzyl(ethyl)amino]butyl}-4-phenyl-2,3-dihydropyridazin-3-one] | 73.9

Same assay, conditions: compound at 100 nM, [3H](+)pentazocine 15 nM, 37° C., 2 hours, read-out: Sigma-1 receptor % inhibition 100 nM

Compound | inhibition at 0.1 µM [%]
O=c1c(-c2ccccc2)ccnn1CCCCN1CCCC(CO)C1 (stereo not shown) [10t, 2-(4-(3-(hydroxymethyl)piperidin-1-yl)butyl)-4-phenylpyridazin-3(2H)-one] | 38.2
Cc1cc(-c2ccccc2)c(=O)n(CCCCN2CCCCCC2)n1 [11w, 2-[4-(azepan-1-yl)butyl]-6-methyl-4-phenyl-2,3-dihydropyridazin-3-one] | 53.9
CC1CN(CCCCn2nccc(-c3ccccc3)c2=O)CC(C)O1 (stereo not shown) [10x, 2-(4-(2,6-dimethylmorpholino)butyl)-4-phenylpyridazin-3(2H)-one] | 76.2
O=c1c(-c2ccccc2)ccnn1CCCCN1CCOC(c2ccccc2)C1 (stereo not shown) [10w, 4-phenyl-2-(4-(2-phenylmorpholino)butyl)pyridazin-3(2H)-one] | 79.4
CN(CCO)CCCCn1nccc(-c2ccccc2)c1=O [10p, 2-(4-((2-hydroxyethyl)(methyl)amino)butyl)-4-phenylpyridazin-3(2H)-one] | 9.7
O=c1c(-c2ccccc2)ccnn1CCCCN1CCCOCC1 [10c, 2-(4-(1,4-oxazepan-4-yl)butyl)-4-phenylpyridazin-3(2H)-one] | 80.3
COCC(c1ccccc1)N(C)CCCCn1nccc(-c2ccccc2)c1=O (stereo not shown) [10o, 2-(4-((2-methoxy-1-phenylethyl)(methyl)amino)butyl)-4-phenylpyridazin-3(2H)-one] | 68.3
O=c1c(-c2ccccc2)ccnn1CCCCN1CCCC(c2ccccc2)C1 (stereo not shown) [10r, 4-phenyl-2-(4-(3-phenylpiperidin-1-yl)butyl)pyridazin-3(2H)-one] | 92.1
CN(CCCCn1nccc(-c2ccccc2)c1=O)CC1CCOCC1 [10q, 2-(4-(methyl((tetrahydro-2H-pyran-4-yl)methyl)amino)butyl)-4-phenylpyridazin-3(2H)-one] | 79.6
Cc1cc(-c2ccccc2)c(=O)n(CCCCN(C)Cc2ccccc2)n1 [11v, 2-{4-[benzyl(methyl)amino]butyl}-6-methyl-4-phenyl-2,3-dihydropyridazin-3-one] | 86
O=c1c(-c2ccccc2)ccnn1CCCCN1CCCCC1CCO (stereo not shown) [10u, 2-(4-(2-(2-hydroxyethyl)piperidin-1-yl)butyl)-4-phenylpyridazin-3(2H)-one] | 26.5
